Laboratory results as given in ChEMBL document CHEMBL1828534, “Synthesis and antitumor activity of 1,2,4-triazoles having 1,4-benzodioxan fragment as a novel class of potent methionine aminopeptidase type II inhibitors” (Bioorg Med Chem, 2011).

Experiments:
cells = details: Homo sapiens, SW 1116, 24 h
Description: Antiproliferative activity against human SW1116 cells after 24 hrs by MTT assay

HepG2 [1] = test: cells; details: Homo sapiens, HepG2, 24 h
Description: Antiproliferative activity against human HepG2 cells after 24 hrs by MTT assay

HeLa = test: cells; details: Homo sapiens, 24 h
Description: Antiproliferative activity against human HeLa cells after 24 hrs by MTT assay

BGC-823 = test: cells; details: Homo sapiens, BGC-823, 24 h
Description: Antiproliferative activity against human BGC823 cells after 24 hrs by MTT assay

[2] = biological target: Methionine aminopeptidase 2 (Homo sapiens, UniProt P50579); test: Inhibition of MetAP2 after 4 hrs
HepG2 [3] = test: Induction of apoptosis in human HepG2 cells assessed as late pre-necrotic cells at 2 uM after 24 hrs using annexin V-FITC and propidium iodide staining by flow cytometry analysis (Rvb =0.02 %); assay type: functional
HepG2 [4] = test: Induction of apoptosis in human HepG2 cells assessed as late apoptotic/necrotic cells at 2 uM after 24 hrs using annexin V-FITC and propidium iodide staining by flow cytometry analysis (Rvb =0.02 %); assay type: functional
HepG2 [5] = test: Induction of apoptosis in human HepG2 cells assessed as early apoptotic cells at 1 uM after 24 hrs using annexin V-FITC and propidium iodide staining by flow cytometry analysis (Rvb =0.02 %); assay type: functional
HepG2 [6] = test: Induction of apoptosis in human HepG2 cells assessed as late apoptotic/necrotic cells at 0.5 uM after 24 hrs using annexin V-FITC and propidium iodide staining by flow cytometry analysis (Rvb =0.02 %); assay type: functional
HepG2 [7] = test: Induction of apoptosis in human HepG2 cells assessed as viable cells at 1 uM after 24 hrs using annexin V-FITC and propidium iodide staining by flow cytometry analysis (Rvb =96.26 %); assay type: functional; details: HepG2, 24 h, read-out: Activity
HepG2 [8] = test: Induction of apoptosis in human HepG2 cells assessed as late apoptotic/necrotic cells at 4 uM after 24 hrs using annexin V-FITC and propidium iodide staining by flow cytometry analysis (Rvb =0.02 %); assay type: functional
HepG2 [9] = test: Induction of apoptosis in human HepG2 cells assessed as late pre-necrotic cells at 1 uM after 24 hrs using annexin V-FITC and propidium iodide staining by flow cytometry analysis (Rvb =0.02 %); assay type: functional
HepG2 [10] = test: Induction of apoptosis in human HepG2 cells after 24 hrs using annexin V-FITC and propidium iodide staining by flow cytometry analysis; assay type: functional, cell-based
HepG2 [11] = test: Induction of apoptosis in human HepG2 cells assessed as early apoptotic cells at 0.5 uM after 24 hrs using annexin V-FITC and propidium iodide staining by flow cytometry analysis (Rvb =0.02 %); assay type: functional
HepG2 [12] = test: Induction of apoptosis in human HepG2 cells assessed as viable cells at 0.5 uM after 24 hrs using annexin V-FITC and propidium iodide staining by flow cytometry analysis (Rvb =96.26 %); assay type: functional; details: HepG2, 24 h, read-out: Activity
HepG2 [13] = test: Induction of apoptosis in human HepG2 cells assessed as viable cells at 4 uM after 24 hrs using annexin V-FITC and propidium iodide staining by flow cytometry analysis (Rvb =96.26 %); assay type: functional; details: HepG2, 24 h, read-out: Activity
HepG2 [14] = test: Induction of apoptosis in human HepG2 cells assessed as early apoptotic cells at 2 uM after 24 hrs using annexin V-FITC and propidium iodide staining by flow cytometry analysis (Rvb =0.02 %); assay type: functional
HepG2 [15] = test: Induction of apoptosis in human HepG2 cells assessed as late apoptotic/necrotic cells at 1 uM after 24 hrs using annexin V-FITC and propidium iodide staining by flow cytometry analysis (Rvb =0.02 %); assay type: functional
HepG2 [16] = test: Induction of apoptosis in human HepG2 cells assessed as viable cells at 2 uM after 24 hrs using annexin V-FITC and propidium iodide staining by flow cytometry analysis (Rvb =96.26 %); assay type: functional; details: HepG2, 24 h, read-out: Activity
HepG2 [17] = test: Induction of apoptosis in human HepG2 cells assessed as late pre-necrotic cells at 0.5 uM after 24 hrs using annexin V-FITC and propidium iodide staining by flow cytometry analysis (Rvb =0.02 %); assay type: functional
HepG2 [18] = test: Induction of apoptosis in human HepG2 cells assessed as early apoptotic cells at 4 uM after 24 hrs using annexin V-FITC and propidium iodide staining by flow cytometry analysis (Rvb =0.02 %); assay type: functional
HepG2 [19] = test: Induction of apoptosis in human HepG2 cells assessed as late pre-necrotic cells at 4 uM after 24 hrs using annexin V-FITC and propidium iodide staining by flow cytometry analysis (Rvb =0.02 %); assay type: functional

Sequence of Methionine aminopeptidase 2 (P50579 whole entry): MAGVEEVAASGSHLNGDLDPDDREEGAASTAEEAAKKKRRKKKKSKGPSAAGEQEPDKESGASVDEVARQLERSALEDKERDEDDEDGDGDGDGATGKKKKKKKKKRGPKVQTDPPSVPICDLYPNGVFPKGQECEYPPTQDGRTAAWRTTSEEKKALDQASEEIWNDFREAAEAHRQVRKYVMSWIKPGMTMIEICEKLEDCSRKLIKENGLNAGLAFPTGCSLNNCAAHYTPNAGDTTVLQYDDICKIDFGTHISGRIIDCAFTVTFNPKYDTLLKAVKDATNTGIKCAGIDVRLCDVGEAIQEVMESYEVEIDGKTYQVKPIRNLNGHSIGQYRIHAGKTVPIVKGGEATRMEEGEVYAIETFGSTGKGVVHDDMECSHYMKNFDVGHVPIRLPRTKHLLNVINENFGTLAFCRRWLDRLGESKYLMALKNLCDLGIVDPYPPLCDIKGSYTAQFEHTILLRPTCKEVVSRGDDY

| Structure (SMILES) | IC50 (cells) | IC50 (HepG2 [1]) | IC50 (HeLa) | IC50 (BGC-823) | further results |
| --- | --- | --- | --- | --- | --- |
| O=[N+]([O-])c1ccc(CSc2nnc(-c3ccc4c(c3)OCCO4)n2-c2ccccc2)cc1 | 13.8 µM | 13.8 µM | 36.2 µM | 48.6 µM |  |
| Cc1ccc(CSc2nnc(-c3ccc4c(c3)OCCO4)n2-c2ccccc2)cc1 | 16.2 µM | 56.8 µM | 49.7 µM | 44.3 µM |  |
| O=[N+]([O-])c1cccc(CSc2nnc(-c3ccc4c(c3)OCCO4)n2-c2ccccc2)c1 | 7.59 µM | 49.3 µM | 45.2 µM | 30.1 µM |  |
| Brc1ccccc1CSc1nnc(-c2ccc3c(c2)OCCO3)n1-c1ccccc1 | 7.35 µM | 4.73 µM | > 100 µM | > 100 µM |  |
| Fc1cccc(F)c1CSc1nnc(-c2ccc3c(c2)OCCO3)n1-c1ccccc1 | 9.01 µM | 2.07 µM | 35.2 µM | 84.2 µM |  |
| Clc1ccccc1CSc1nnc(-c2ccc3c(c2)OCCO3)n1-c1ccccc1 | 9.67 µM | 0.97 µM | 29 µM | 17.4 µM |  |
| Cc1ccccc1CSc1nnc(-c2ccc3c(c2)OCCO3)n1-c1ccccc1 | 12.7 µM | 20.5 µM | 36 µM | > 100 µM |  |
| CO[C@@H]1[C@H](OC(=O)NC(=O)CCl)CC[C@]2(CO2)[C@H]1[C@@]1(C)O[C@@H]1CC=C(C)C [O-CHLOROACETYLCARBAMOYLFUMAGILLOL] | 5.54 µM | 0.86 µM | 2.02 µM | 1.48 µM | IC50 [2]: 1.05 µM |
| Fc1ccc(CSc2nnc(-c3ccc4c(c3)OCCO4)n2-c2ccccc2)c(F)c1 | 7.83 µM | 1.96 µM | 18.6 µM | > 100 µM |  |
| COc1cccc(CSc2nnc(-c3ccc4c(c3)OCCO4)n2-c2ccccc2)c1 | 10.1 µM | 35.1 µM | > 100 µM | > 100 µM |  |
| c1ccc(CSc2nnc(-c3ccc4c(c3)OCCO4)n2-c2ccccc2)cc1 | 7.93 µM | 5.96 µM | 32.8 µM | 73.4 µM |  |
| Brc1cccc(CSc2nnc(-c3ccc4c(c3)OCCO4)n2-c2ccccc2)c1 | 26.2 µM | 5.21 µM | 44.2 µM | 65.6 µM |  |
| Sc1nnc(-c2ccc3c(c2)OCCO3)n1-c1ccccc1 | 38.4 µM | 60 µM | 51.9 µM | 47 µM |  |
| Clc1ccc(CSc2nnc(-c3ccc4c(c3)OCCO4)n2-c2ccccc2)cc1 | 8.3 µM | 3.53 µM | 79.2 µM | 79.3 µM |  |
| Clc1cccc(CSc2nnc(-c3ccc4c(c3)OCCO4)n2-c2ccccc2)c1 | 10.6 µM | 2.39 µM | 15 µM | 51.2 µM |  |
| Brc1ccc(CSc2nnc(-c3ccc4c(c3)OCCO4)n2-c2ccccc2)cc1 | 5.81 µM | 7.94 µM | 54.6 µM | 33.8 µM |  |
| Fc1ccccc1CSc1nnc(-c2ccc3c(c2)OCCO3)n1-c1ccccc1 | 13.6 µM | 0.81 µM | 24.2 µM | 18.6 µM | Activity (HepG2 [3]): 27.21%; Activity (HepG2 [4]): 18%; Activity (HepG2 [5]): 3.49%; Activity (HepG2 [6]): 8%; viability at 1 µM (HepG2 [7]): 58.9%; Activity (HepG2 [8]): 23.25%; Activity (HepG2 [9]): 24.49%; Activity (HepG2 [10]): Dose-dependent effect; Activity (HepG2 [11]): 0.8%; viability at 0.5 µM (HepG2 [12]): 58.3%; viability at 4 µM (HepG2 [13]): 39.5%; Activity (HepG2 [14]): 4.03%; Activity (HepG2 [15]): 13.17%; viability at 2 µM (HepG2 [16]): 50.8%; Activity (HepG2 [17]): 32.8%; Activity (HepG2 [18]): 11%; Activity (HepG2 [19]): 26.23% |
| O=[N+]([O-])c1ccccc1CSc1nnc(-c2ccc3c(c2)OCCO3)n1-c1ccccc1 | 8.3 µM | 12 µM | 69.8 µM | 26.4 µM |  |
| Fc1ccc(CSc2nnc(-c3ccc4c(c3)OCCO4)n2-c2ccccc2)cc1 | 20.8 µM | 1.02 µM | 46.9 µM | > 100 µM |  |
